Experiments:
MAPK14 (human) = MAPK14 (human) (UniProt Q16539); experiment: Inhibition of MAPK14 Kinase Activity
PIK3CA (human) [1] = biological target: PIK3CA (human) (UniProt P42336); experiment: Inhibition of PIK3CA Kinase Activity
PIK3CA (human) [2] = biological target: PIK3CA (human) (UniProt P42336); experiment: Inhibition of Substrate Phosphorylation by PIK3CA; settings: hct 116,bxpc-3 pancreatic,mda-mb-468, concentration not given here

Sequence of PIK3CA (human) (P42336 whole entry, looked up): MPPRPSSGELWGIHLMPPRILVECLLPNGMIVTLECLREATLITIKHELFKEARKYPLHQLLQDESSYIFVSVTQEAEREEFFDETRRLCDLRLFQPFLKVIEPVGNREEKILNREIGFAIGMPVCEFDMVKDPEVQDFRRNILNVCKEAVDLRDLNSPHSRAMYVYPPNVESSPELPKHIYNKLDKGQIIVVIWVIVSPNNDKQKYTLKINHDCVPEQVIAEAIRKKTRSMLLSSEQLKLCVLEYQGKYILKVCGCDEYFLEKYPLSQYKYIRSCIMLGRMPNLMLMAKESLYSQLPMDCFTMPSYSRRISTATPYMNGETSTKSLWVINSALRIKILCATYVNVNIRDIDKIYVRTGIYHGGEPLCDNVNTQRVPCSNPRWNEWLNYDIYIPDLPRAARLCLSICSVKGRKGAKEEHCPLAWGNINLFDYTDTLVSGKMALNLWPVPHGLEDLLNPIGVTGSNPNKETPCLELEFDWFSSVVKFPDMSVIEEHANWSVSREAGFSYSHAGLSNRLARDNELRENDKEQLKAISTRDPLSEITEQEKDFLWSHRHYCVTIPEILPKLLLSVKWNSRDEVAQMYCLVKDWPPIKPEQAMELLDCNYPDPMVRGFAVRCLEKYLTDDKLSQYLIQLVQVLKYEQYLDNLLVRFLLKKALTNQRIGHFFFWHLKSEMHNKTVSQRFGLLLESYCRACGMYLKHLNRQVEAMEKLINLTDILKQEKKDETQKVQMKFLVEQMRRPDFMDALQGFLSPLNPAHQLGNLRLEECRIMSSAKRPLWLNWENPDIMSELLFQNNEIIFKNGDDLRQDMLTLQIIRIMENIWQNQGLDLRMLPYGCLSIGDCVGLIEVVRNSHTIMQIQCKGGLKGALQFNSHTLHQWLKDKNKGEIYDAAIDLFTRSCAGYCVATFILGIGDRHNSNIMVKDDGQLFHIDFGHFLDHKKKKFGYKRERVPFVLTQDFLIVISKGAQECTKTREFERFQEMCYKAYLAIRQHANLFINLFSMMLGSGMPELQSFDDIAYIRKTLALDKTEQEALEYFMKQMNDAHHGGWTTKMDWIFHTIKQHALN
Sequence of MAPK14 (human) (Q16539 whole entry, looked up): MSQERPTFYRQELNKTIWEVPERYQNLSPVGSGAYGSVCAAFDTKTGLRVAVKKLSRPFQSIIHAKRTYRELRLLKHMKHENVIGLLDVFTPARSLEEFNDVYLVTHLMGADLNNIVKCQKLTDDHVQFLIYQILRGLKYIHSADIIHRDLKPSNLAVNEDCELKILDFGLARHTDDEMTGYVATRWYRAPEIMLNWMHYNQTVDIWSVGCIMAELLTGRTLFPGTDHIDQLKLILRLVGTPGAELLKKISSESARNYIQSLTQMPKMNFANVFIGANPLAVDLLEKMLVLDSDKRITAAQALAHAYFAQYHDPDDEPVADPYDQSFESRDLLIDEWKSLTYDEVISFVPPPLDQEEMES

Row | SMILES | IC50 (MAPK14 (human)) [µM] | IC50 (PIK3CA (human) [1]) [µM] | inhibition (PIK3CA (human) [2]) [%]
1 | CCNC(=O)Nc1ccc2ncc(Nc3ccc(NC(C)=O)cc3)nc2n1 | > 100 |  | 
2 | CCNC(=O)Nc1ccc2ncc(-c3ccc(OC(=O)/C=C/c4ccccc4)cc3)nc2n1 | > 100 | > 31.6 | 
3 | COCCOC(=O)Oc1ccc(-c2cnc3ccc(NC(=O)NCCCCO)nc3n2)cc1 | > 31.6 |  | 
4 | CCNC(=O)Nc1ccc2ncc(-c3ccc(OC(=O)N(C)C)cc3)nc2n1 | > 100 |  | 
5 | CCNC(=O)Nc1ccc2ncc(-c3ccc(OC(=O)Oc4ccccc4)cc3)nc2n1 | > 100 |  | 
6 | CCNC(=O)Nc1ccc2ncc(-c3ccc(NC(=O)COCCOC)cc3)nc2n1 | > 100 |  | 
7 | COc1cc(-c2cnc3ccc(NC(=O)NCCCCP(=O)(O)O)nc3n2)ccc1O | > 100 |  | 
8 | CCNC(=O)Nc1ccc(-c2cnc3ccc(NC(=O)NCC)nc3n2)cn1 | > 100 |  | 
9 | CCNC(=O)Nc1ccc(-c2cnc3ccc(NC(=O)NCC)nc3n2)cc1 | > 100 |  | 70
10 | CCNC(=O)Nc1ccc2ncc(-c3ccc(NC(=O)OCCOC)cc3)nc2n1 | > 100 |  | 
11 | CCNC(=O)Nc1ccc2ncc(-c3ccc(OC(=O)OCCOC)c(OC)c3)nc2n1 | > 100 |  | 90
12 | CCNC(=O)Nc1ccc2ncc(-c3cccc(OC(=O)OCCOC)c3)nc2n1 | > 100 |  | 
13 | CCNC(=O)Nc1ccc2ncc(-c3ccc(OC(=O)OCC(C)C)cc3)nc2n1 | > 100 |  | 
14 | CCOP(=O)(CCCCNC(=O)Nc1ccc2ncc(-c3ccc(O)c(OC)c3)nc2n1)OCC | > 100 |  | 
15 | CCNC(=O)Nc1ccc2ncc(-c3ccc(OC(=O)OCCOC)cc3)nc2n1 | > 100 |  | 100
16 | CCNC(=O)Nc1ccc2ncc(-c3ccc(NC(=O)OC(C)(C)C)cc3)nc2n1 | > 100 |  | 
17 | CCNC(=O)Nc1ccc2ncc(-c3ccc(OC(=O)OC)cc3)nc2n1 | > 100 |  | 50
18 | CCNC(=O)Nc1ccc2ncc(Nc3ccc(C)c(NS(C)(=O)=O)c3)nc2n1 |  |  | 90
